Like-named read-outs stand apart in the source and are kept apart here.
Key:
NC/Nga mice = assay: Disease score of NC/Nga mice (AD model), oral administration; format: in vivo, mouse
Excerpt: As a model animal, NC/Nga mouse was used. The NC/Nga mouse is an inbred mouse established in 1957, which is originated from “[…]” mouse, a pet mouse. Long since, it has been known that this mouse is sensitive to X-rays and to ovalbumin-caused anaphylactic shocks. […] Such AD-like phenotype occurs in the ordinary environment but not in a SPF (specific pathogen-free) environment where neither microorganism nor parasite exists, so that the onset of the disease can be controlled. In this view, the mouse was used as a disease model of atopic dermatitis in carrying out the present invention As the model animal, 5-week-old male NC/Nga mice bred in SPF environment, presenting neither dermatitis-like feature nor hyperIgE syndrome were used. To these mice, GLA ethyl ester (degree of purification of 95.98%: manufactured by Idemitsu Material Co., Ltd.) was administered by a stomach tube method in a dosage of 50 mg/individual once every other day starting from 5-week-old to obtain a GLA-administered group composed of 6 animals. On the other hand, as a control, PBS (phosphate buffered saline) instead of GLA ethyl ester was likewise administered in a dosage of 50 μg/individual to obtain a control group composed of 6 animals. In each week from the onset of administration (5 weeks old) up to 19 weeks old, the disease scores of the above-mentioned mice were converted into points according to the method of Matsuda et al. (Int. Immunol., 9, 461-466, 1997). A concrete method is described below. The following 5 items from A to E were scored by a three point full mark scoring system of 0 (none), 1 (slightly aggravated), 2 (moderately aggravated), and 3 (considerably aggravated). In total, 15 points make a full score. […] B (erythema, bleeding); Bleeding from ears and face and erythema on the back of ears were scored. C (edema): Mainly, degree of swelling of ears was scored. D (abrasions, erosion): Abrasions around the face, on the back of ears, and at around the base of arm were scored. E (dryness): Degree of dry skin from the back to the face was scored. As the model animal, 5-week-old male NC/Nga mice bred in SPF environment, presenting neither dermatitis-like feature nor hyperIgE syndrome were used. The animals were divided into each group composed of 10 animals. For the GLA-administered group, GLA ethyl ester (degree of purification of 95.98%: manufactured by Idemitsu Material Co., Ltd.) was administered by a stomach tube method in a dosage of 0.1 mg/individual once every other day. Administration of GLA was performed by using, olive oil containing little essential fatty acid which was added to 0.1 mg of GLA ethyl ester to make 50 μl. For the control group, 50 μl of olive oil alone was likewise administered. The disease score of mice in these groups were calculated every week in the same manner as in Example 1 and total IgE amount in plasma was measured once every other week.

IgE = settings: for total IgE amount in plasma compared with control group: stomach tube
Procedure: As the model animal, 5-week-old male NC/Nga mice bred in SPF environment, presenting neither dermatitis-like feature nor hyperIgE syndrome were used. To these mice, GLA ethyl ester (degree of purification of 95.98%: manufactured by Idemitsu Material Co., Ltd.) was administered by a stomach tube method in a dosage of 50 mg/individual once every other day starting from 5-week-old to obtain a GLA-administered group composed of 6 animals. On the other hand, as a control, PBS (phosphate buffered saline) instead of GLA ethyl ester was likewise administered in a dosage of 50 μg/individual to obtain a control group composed of 6 animals.
In addition, blood was collected from the above-mentioned mice at the time of starting the administration (5 weeks old), and at 7, 9, and 11 weeks old and was centrifuged at 1,500 rpm for 10 minutes to obtain plasma. Then, total IgE amount in the plasma was measured by a sandwich ELISA method. A concrete method thereof is described below.
Rat anti-murine IgE monoclonal antibody (manufactured by PharMingen Co.) diluted to […] with coating buffer (0.1 M NaHCO3, 0.5 M NaCl, pH 8.5) was added to each well of a plate (NUNC-IMMUNOPLATE, manufactured by NUNC Inc., A/S) in an amount of 50 μl, and left to stand at 4° C. overnight or at 37° C. for 3 hours, followed by washing the wells with PBS/Tween (PBS, 0.05% Tween-20, pH 7.5) 3 times.
To each well, 200 μl of blocking buffer (PBS containing 2% skimmed milk) was added and incubated at 37° C. for 3 hours, followed by washing the wells with PBS/Tween 3 times.
Then, the above-mentioned murine plasma was diluted 100 folds with dilution buffer (PBS, 2% skimmed milk, 0.25% SDS) to prepare a sample for measurement. Furthermore, murine IgE standard (manufactured by PharmMingen Co.) was diluted with dilution buffer to prepare a standard for measurement.
The samples for measurement and standard were added to each well in amounts of 50 μl/well and incubated at 37° C. for 3 hours, followed by washing the wells with PBS/Tween 3 times.
Biotinylated rat anti-murine IgE antibody (manufactured by PharmMingen Co.) diluted to 2 μg/ml with dilution buffer was added to each well in an amount of 50 μl and incubated at 37° C. for about 3 hours, followed by washing the wells with PBS/Tween 6 times.
Furthermore, alkaline phosphatase-labeled Streptoavidin (manufactured by BioSource, Inc.) diluted to 1.000 folds with dilution buffer was added to the wells in an amount of 50 μl/well and incubated at 37° C. for 1 hour, followed by washing the wells with PBS/Tween 6 times.
As the model animal, 5-week-old male NC/Nga mice bred in SPF environment, presenting neither dermatitis-like feature nor hyperIgE syndrome were used. The animals were divided into each group composed of 10 animals. For the GLA-administered group, GLA ethyl ester (degree of purification of 95.98%: manufactured by Idemitsu Material Co., Ltd.) was administered by a stomach tube method in a dosage of 0.1 mg/individual once every other day. Administration of GLA was performed by using, olive oil containing little essential fatty acid which was added to 0.1 mg of GLA ethyl ester to make 50 μl. For the control group, 50 μl of olive oil alone was likewise administered.
The disease score of mice in these groups were calculated every week in the same manner as in Example 1 and total IgE amount in plasma was measured once every other week.

[1] = tested on: spleen cells of NC/Nga mice
Excerpt: In this example, the effect of GLA to inhibit IgE production in vitro was studied by an in vitro class switch induction system using spleen cells of the mice. First, spleen cells were collected from NC/Nga mice by the following method. An 8-week-old NC/Nga mouse bred in SPF environment, presenting neither dermatitis-like feature nor hyperIgE syndrome was sacrificed by dislocation fracture of the cervical vertebrae and the spleen was extracted in a sterile condition. The extracted spleen was placed in RPMI-1640 medium (about 3 ml) in a dish, and separated into individual cells with a sterilized pincette. The separated cells were placed in a 15-ml Falcon tube and the membrane of the spleen was removed. Then, the cells suspended in the medium were centrifuged at 1,500 rpm for 5 minutes to recover only the cells. Subsequently, to remove erythrocytes, the recovered cells were suspended in 10 ml of sterilized lysis buffer at 4° C. to cause hemolysis, followed by washing twice with sterilized PBS produced by Milli-Q at 4° C. to collect spleen cells. A portion of the obtained spleen cells was stained with Trypan Blue (Trypan Blue Stain 0.4%: manufactured by LIFE TECHNOLOGIES, INC.) and counted on a hemacytometer. Then, measurement of IgE amount in the culture supernatant in a class switch induction system was performed by the following procedure. Based on the number of cells counted by the above-mentioned method, the cells were inoculated on a plate (96-well cell culture microtest plate, with flat bottom, low evaporation type, made of polystyrene with a lid: manufactured by FALCON CO.) to a concentration of 2×10^5 cells/ml per well. The medium used here contained cytokine IL-4 (100 U/ml) and LPS (10 μg/ml) as stimulants for the IgE class switch induction. To observe the influences of GLA before, during, or after the stimulation for class switch, GLA was added to the media in various concentrations (0, 10, 20, 40, 60, 80, 120, 160 μg/ml) after 0 hour (at the start of culture), 48 hours, or 72 hours from the start. Here, the addition of GLA was performed by diluting it with ethanol to appropriate concentrations and making the final concentration of ethanol to be 0.1%. All the cultures were performed at 37° C. in a 5%-CO2 incubator and the cultured supernatants were recovered after 7 days (after 168 hours). The IgE amounts thereof were measured by a sandwich ELISA method.

[2] = tested on: spleen cells of NC/Nga mice; settings: BrdU 60-72 hours
Procedure: Here, the addition of GLA was performed by diluting it with ethanol to appropriate concentrations and making the final concentration of ethanol to be 0.1%.

[3] = oral administration of olive oil containing 0.1 mg GLA ethyl ester

CCCCC/C=C\C/C=C\C/C=C\CCCCC(=O)OCC [GLA ethyl ester]
disease score (summary of Example 2) (NC/Nga mice; [3]): significantly low | IgE amount (summary of Example 2) (IgE; [3]): significantly low

CCCCC/C=C\C/C=C\C/C=C\CCCCC(=O)O [GLA, γ-linolenic acid]
average disease score compared with control group (NC/Nga mice; GLA ethyl ester 0.1 mg/individual in olive oil, stomach tube, once every other day, vs olive oil control, week 9 or thereafter): low average scores | disease score compared with control group (NC/Nga mice; GLA ethyl ester 0.1 mg/individual in olive oil, stomach tube, once every other day, vs olive oil control, weeks 15 to 17): significantly low scores | disease score compared with control group (NC/Nga mice; GLA ethyl ester 50 mg/individual, stomach tube, once every other day from 5 weeks old, vs PBS control, week 11 and weeks 13 to 19): significant inhibition of the disease score | increase of disease score with time (NC/Nga mice; GLA ethyl ester 50 mg/individual, stomach tube, once every other day, at week 11 or thereafter): no significant increase was observed | inhibition of IgE production in vivo (IgE; 2 month-long oral administration to AD-suffering NC/Nga mice with hyperIgE syndrome): no inhibition of IgE production | increase of total IgE amount in plasma with time (IgE; GLA ethyl ester 0.1 mg/individual in olive oil, once every other day, at week 13 and thereafter): no significant increase was observed | total IgE amount in plasma compared with control group (IgE; GLA ethyl ester 0.1 mg/individual in olive oil, once every other day, vs olive oil control, week 13 to week 19): significantly low values | total IgE amount in plasma compared with control group (IgE; GLA ethyl ester 50 mg/individual, once every other day, vs PBS control, each measurement period (weeks 5, 7, 9, 11)): low in total IgE amount | total IgE amount in plasma compared with control group (IgE; GLA ethyl ester 50 mg/individual, once every other day, vs PBS control, week 11): significantly low | amount of totally produced IgE compared to no-GLA-added lot ([1]; GLA 40 μg/ml added after 0 hour of culture): about one tenth | degree of decrease in total IgE amount produced versus decrease in cell proliferation ([1]; GLA 20 to 60 μμg/ml added after 0 hour): significantly greater | inhibition of IgE production, dependence on concentration ([1]; GLA added after 0 hour of culture, 0-160 μg/ml, supernatant after 7 days): inhibits IgE production dose-dependently | inhibition of IgE production (IgE amount in culture supernatant) ([1]; GLA added after 0 hour of culture, 120 μg/ml, supernatant after 7 days): complete inhibition of the IgE production | inhibition of IgE production (IgE amount in culture supernatant) ([1]; GLA added after 48 hours of culture, above 120 μg/ml): not complete but significant inhibition | inhibition of IgE production (IgE amount in culture supernatant) ([1]; GLA added after 48 hours of culture, up to 80 μg/ml): no IgE inhibition was observed | inhibition of IgE production (IgE amount in culture supernatant) ([1]; GLA added after 72 hours of culture, at the added concentrations measured (10-160 μg/ml)): no significant inhibition of IgE production was observed | cell proliferation potency with increase of added GLA concentration ([2]; GLA 0-160 μg/ml added after 0 hour): a decrease in the cell proliferation potency was observed | cell proliferation compared to no-GLA-added lot ([2]; GLA 40 μg/ml added after 0 hour): did not substantially decrease

From patent US20030166723A1, “Ige production inhibitors” (priority 2000, published 2003)
